Assay results published in ChEMBL document CHEMBL3044763, “Inhibitory Activities of Rhodanine Derivatives on Plant Growth” (Biosci Biotechnol Biochem, 1996).

Columns and labels:
[1] = system: Brassica rapa subsp. oleifera; experiment: Growth inhibition of Brassica rapa subsp. oleifera assessed as chlorophyll a level at 5 x 10^-5 M after 7 days; assay type: functional; set-up: scale not given: the % may be the effect or the level left
[2] = system: Brassica rapa subsp. oleifera; experiment: Growth inhibition of Brassica rapa subsp. oleifera assessed as chlorophyll b level at 3 x 10^-4 M after 7 days; assay type: functional; set-up: scale not given: the % may be the effect or the level left
[3] = system: Brassica rapa subsp. oleifera; experiment: Growth inhibition of Brassica rapa subsp. oleifera assessed as total chlorophyll level at 3 x 10^-5 M after 7 days; assay type: functional; set-up: scale not given: the % may be the effect or the level left
[4] = system: Brassica rapa subsp. oleifera; experiment: Growth inhibition of Brassica rapa subsp. oleifera assessed as chlorophyll b level at 1 x 10^-4 M after 7 days; assay type: functional; set-up: scale not given: the % may be the effect or the level left
[5] = system: Brassica rapa subsp. oleifera; experiment: Growth inhibition of Brassica rapa subsp. oleifera assessed as total chlorophyll level at 1 x 10^-4 M after 7 days; assay type: functional; set-up: scale not given: the % may be the effect or the level left
[6] = system: Brassica rapa subsp. oleifera; experiment: Growth inhibition of Brassica rapa subsp. oleifera assessed as chlorophyll b level at 5 x 10^-5 M after 7 days; assay type: functional; set-up: scale not given: the % may be the effect or the level left
[7] = system: Brassica rapa subsp. oleifera; experiment: Growth inhibition of Brassica rapa subsp. oleifera assessed as total chlorophyll level at 5 x 10^-5 M after 7 days; assay type: functional; set-up: scale not given: the % may be the effect or the level left
[8] = system: Brassica rapa subsp. oleifera; experiment: Growth inhibition of Brassica rapa subsp. oleifera assessed as chlorophyll a level at 3 x 10^-4 M after 7 days; assay type: functional; set-up: scale not given: the % may be the effect or the level left
[9] = system: Brassica rapa subsp. oleifera; experiment: Growth inhibition of Brassica rapa subsp. oleifera assessed as root growth at 5 x 10^-5 M after 7 days; assay type: functional
[10] = system: Brassica rapa subsp. oleifera; experiment: Growth inhibition of Brassica rapa subsp. oleifera assessed as root growth at 1 x 10^-4 M after 7 days; assay type: functional
[11] = system: Brassica rapa subsp. oleifera; experiment: Growth inhibition of Brassica rapa subsp. oleifera assessed as root growth at 3 x 10^-4 M after 7 days; assay type: functional
[12] = system: Brassica rapa subsp. oleifera; experiment: Growth inhibition of Brassica rapa subsp. oleifera assessed as chlorophyll b level at 3 x 10^-5 M after 7 days; assay type: functional; set-up: scale not given: the % may be the effect or the level left
[13] = Toxicity in ip dosed Mus musculus ddY (mouse) assessed as mortality after 1 to 7 days; assay type: organism-based; details: in vivo
[14] = system: Brassica rapa subsp. oleifera; experiment: Growth inhibition of Brassica rapa subsp. oleifera assessed as chlorophyll a level at 3 x 10^-5 M after 7 days; assay type: functional; set-up: scale not given: the % may be the effect or the level left
[15] = system: Brassica rapa subsp. oleifera; experiment: Growth inhibition of Brassica rapa subsp. oleifera assessed as root growth at 3 x 10^-5 M after 7 days; assay type: functional
[16] = system: Brassica rapa subsp. oleifera; experiment: Growth inhibition of Brassica rapa subsp. oleifera assessed as total chlorophyll level at 3 x 10^-4 M after 7 days; assay type: functional; set-up: scale not given: the % may be the effect or the level left
[17] = system: Brassica rapa subsp. oleifera; experiment: Growth inhibition of Brassica rapa subsp. oleifera assessed as chlorophyll a level at 1 x 10^-4 M after 7 days; assay type: functional; set-up: scale not given: the % may be the effect or the level left

Row | Compound | Activity [1] | Activity [2] | Activity [3] | Activity [4] | Activity [5] | Activity [6] | Activity [7] | Activity [8] | Root length [9] | Activity [10] | Activity [11] | Activity [12] | LD50 [13] | Activity [14] | Root length [15] | Activity [16] | Activity [17]
1 | CC(=O)NN1C(=O)CSC1=S [N-ACETYLAMINORHODANINE] | 11.5% | 4.23% | 20.31% | 5.41% | 16.24% | 5.99% | 17.47% | 9.35% | 46.5 mm | 47.4 mm | 39.3 mm | 6.65% | > 1000 mg/kg | 13.68% | 47 mm | 13.58% | 10.84%
2 | O=C(NN1C(=O)CSC1=S)c1ccccc1 [N-BENZOYLAMINORHODANINE] | 13.43% | 3.1% | 21.24% | 6.15% | 17.6% | 6.12% | 19.54% | 6.53% | 73.3 mm | 33.8 mm | 19.2 mm | 6.82% | > 1000 mg/kg | 14.44% | 79.6 mm | 9.62% | 11.46%
